Assay results from patent publication US9061038B2, “Doxorubicin adjuvants to reduce toxicity and methods for using the same” (Tosk, Incorporated, priority 2008, dated 2015).
Entries after “also recorded” stand apart in the source; their conditions may differ. Counter-ions that a name gives are not always drawn.

What was measured:
[1] = cited from earlier work
[2] = system: CCRF-CEM human cancer cells; assay: Cell culture study: interference with doxorubicin activity, alamarBlue cell viability; assay type: cell-based; details: doxorubicin 0.01, 0.1, 1.0 μM with TK-115339 0.01, 0.1, 1.0 μM, 72 hour incubation
Method: The aim of this study was to examine whether or not a representative nitrone test article, TK-115339, interfered with the desired activity of doxorubicin in vitro.
The tumor cell line for the cell culture study was CCRF-CEM (Human T-ALL, CCL-119) from ATCC, and cells were cultured in accordance with the product information sheets replacing 75 cm^2 culture flasks with 56.7 cm^2 Petri dishes and adding 1% penicillin-streptomycin solution and 1% GlutaMAX™ to the culture medium. The compound, TK-115339, was dissolved in DMSO then diluted to obtain initial working solutions of 1, 10 and 100 μM. […]
Cells were thawed according to ATCC protocol and plated in 10 mL of sterile filtered growth medium. […] Doxorubicin was evaluated at concentrations of 0.01, 0.1 and 1.0 μM alone or in combination with TK-115339 at concentrations of 0.01, 0.1 and 1.0 μM. […]
At the end of incubation, cell viability was determined by optical absorbance of alamarBlue® at λ=570 and 600 nm in accordance using a standard protocol provided by the vendor, Biosource. Data was analyzed using SPSS 14.0 software (SPSS Inc., Chicago, Ill.). Statistical significance of the differences between experimental groups was calculated by using one-way ANOVA followed by a Bonferroni post-hoc analysis.
Cells were prepared and tested as described above. […] For each condition, 12 replicates were analyzed. […]

CD-1 mice [3] = assay: Mouse dose response study: protection against doxorubicin-associated cardiotoxicity, plasma cTnI ELISA; assay type: in vivo; details: 25 mg/kg doxorubicin ip, 0.0001, 0.001, 0.01, 0.1 or 1.0 mg/kg TK-115339 ip 3 hours before and after doxorubicin, plasma on day 5
Method: The aim of this study was to establish the dose response for the protection afforded by TK-115339 against doxorubicin-associated cardiotoxicity.
Eight to ten-week-old male CD-1 male mice (Charles River, Hollister, Calif.) weighing 30-35 g were housed in a climate-controlled environment, the light was controlled (light:dark, 12:12), and the animals were given food and water ad libitum. The animals (12 animals/treatment group) were dosed ip (200 μl volume) on day 1 with 25 mg/kg doxorubicin or 25 mg/kg doxorubicin plus 0.0001, 0.001, 0.01, 0.1 or 1.0 mg/kg TK-115339 3 hours before, and after, the doxorubicin treatment. […]
On days 2 and 3 the mice received a single ip injection of either saline (doxorubicin alone group) or […] (dose ranging experimental groups). […] The plasma samples were analyzed for cTnI using a commercial ELISA test according to the manufacture's recommendations (Life Diagnostics, Inc., Cat. No. 2010-1-HSP).
(§1) Data was analyzed using SPSS software (SPSS Inc., Chicago, Ill.). […]
Representative of the data shown in FIG. 2, mice (12 animals/treatment group) were dosed ip on Day 1 with 25 mg/kg doxorubicin or 25 mg/kg doxorubicin plus 0.0001, 0.001, 0.01, 0.1 or 1.0 mg/kg TK-115339 3 hours before, and after, the doxorubicin treatment. […] The plasma samples were analyzed for cTnI using a commercial ELISA test.

CD-1 mice [4] = assay: Mouse study: protection against doxorubicin-induced cardiac damage, plasma cardiac troponin I (cTnI) ELISA; assay type: in vivo; details: 25 mg/kg doxorubicin ip, 1.0 or 3.0 mg/kg TK-115339 ip 3 hours before and after doxorubicin, single ip on days 2-4, plasma on day 5 (96 hours)
Description: To this end, a representative nitrone test article (TK-115339) was examined for its ability to mitigate one aspect of doxorubicin-induced toxicity, cardiac damage, in CD-1 mice as determined by concentration of cardiac troponin I (cTnI) in animal plasma (Li et al., Circulation, 113:535-43 (2006) and Hou et al., J Lab Clin Med., 146: 299-303 (2005). Doxorubicin was purchased from Xinchem Corporation (China). TK-115339 was synthesized at the University of California, Santa Cruz. […]
On days 2, 3 and 4, the mice received a single ip injection of either 1 or 3 mg/kg of TK-115339. […] The plasma samples were analyzed for cTnI using a commercial ELISA test according to the manufacture's recommendations (Life Diagnostics, Inc., Cat. No. 2010-1-HSP).
as §1
Representative of the data shown in FIG. 1, mice (10 animals/treatment group) were dosed ip on Day 1 with vehicle (pH 7.4 buffered saline), 25 mg/kg doxorubicin ip or 25 mg/kg doxorubicin ip plus 1.0 or 3.0 mg/kg TK-115339 3 hours before, and after, the doxorubicin treatment. […] The plasma samples were analyzed for cTnI using a commercial ELISA test for troponin I. Boxplots of troponin findings from the study are provided in FIG. 1.

Row | Structure (SMILES) | solubility in methanol ([1]; methanol) | solubility in water ([1]; water) | interference with tumor cell anti-growth activity (cytotoxicity) of doxorubicin, cell viability [2] | dose response of protection from doxorubicin-induced cardiac damage (plasma cardiac troponin) (CD-1 mice [3]) | protection from doxorubicin-induced cardiac damage estimated by plasma cardiac troponin I (cTnI) (CD-1 mice [4])
1 | COc1cccc2c1C(=O)c1c(O)c3c(c(O)c1C2=O)C[C@@](O)(C(=O)CO)C[C@@H]3O[C@H]1C[C@H](N)[C@H](O)[C@H](C)O1 [Doxorubicin hydrochloride, 5,12-naphthacenedione,10-[(3-amino-2,3,6-trideoxy-α-L-Iyxo-hexopyranosyl)oxy]-7,8,9,10-tetrahydro-6,8,11-trihydroxy-8-(hydroxyacetyl)-1-methoxy-, hydrochloride, (8S-cis)-(9Cl)] | slightly soluble in methanol | soluble in water | – | – | –
2 | CC(C)(C)[N+]([O-])=Cc1ccc(SSc2ccc(C=[N+]([O-])C(C)(C)C)cc2)cc1 [TK-115339, symmetrical disulfide conjugate of alpha-(4-sulfanylphenyl)-N-tert-butylnitrone] | – | – | does not interfere with the toxicity of doxorubicin; also recorded: does not interfere with the tumor cell anti-growth activity of doxorubicin | dose-response for the protection; also recorded: dose proportional | mitigate one aspect of doxorubicin-induced toxicity, cardiac damage in CD-1 mice; also recorded: protects mice from doxorubicin-induced cardiac damage
